Measurements as given in patent US11166942B2 (PRAXIS BIOTECH LLC, priority 2018, dated 2021).
Like-named read-outs stand apart in the source and are kept apart here.

Columns and labels:
ATF4 = ATF4 expression inhibition assay (ATF4 5'UTR luciferase reporter, Tg-stressed HEK293T cells); assay type: cell-based, human; conditions: for inhibition at 0.1 µM: read-out: % ATF4 inhibition at 100 nM; for inhibition at 1 µM: read-out: % ATF4 inhibition at 1 μM; for IC50: read-out: ATF4 inhbition IC50
Method: The ATF4 reporter was prepared by fusing the human full length 5′UTR of ATF4 (NCBI Accession No. BC022088.2) upstream of the firefly luciferase coding sequence lacking the initiator methionine. The fused sequence was cloned into pLenti-EF1a-C-Myc-DDK-IRES-Puro cloning vector (Origen #PS100085) using standard methods. Virus production was carried out by using Lenti-X™ Packaging Single Shots Protocol (Clonetech #631276). Viral particles were used to transduce HEK293T cells (ATCC #CRL-3216, ATCC Manassas, Va.), which were subsequently selected with puromycin to generate stable cell line. Cells were maintained at 37° C. and 5% CO2 in DMEM-F12 (Hyclone #SH30023.02) supplemented with 10% heat-inactivated fetal bovine serum (Gibco #16000-044), 2 mM L-glutamine (Gibco #25030-081), 100 U/ml penicillin, and 100 μg/ml streptomycin (Gibco #15140-122).
HEK293T cells carrying the ATF4 luciferase reporter were plated on 96-well plates (Nunc) at 10,000 cells per well. Cells were treated two days after seeding with 100 nM thapsigargin (Tg) (Sigma-Aldrich #T9033) in the presence of 100 nM or 1 μM. For the assessment of the half-maximal inhibitory concentration (IC50) for selected compounds, dose-response assays were performed. Compounds were serially diluted using DMSO ranging from 0.1 nM to 1 μM. Cells without treatment or cells treated with Tg alone were used as controls. Assay plates containing cells were incubated for 3 hours at 37° C.
Luciferase reactions were performed using Luciferase Assay System (Promega #E1501) as specified by the manufacturer. Luminescence was read with an integration time of 1 s and a gain of 110 using a Cytation-5 multi-mode microplate reader (BioTek). Relative luminescence units were normalized to Tg treatment (0% inhibition) and untreated cells (100% inhibition) and the percentage of ATF4 inhibition was calculated.
Percentages of ATF4 inhibition after induction with Tg in the presence of 100 nM or 1 μM of certain test compounds are shown in Table 2. Also shown in Table 2 is the calculated IC50 for certain test compounds. […] Accordingly, inhibition of ATF4 expression as a result of the test compound indicates suppression of the ISR pathway.

[1] = system: Chinese hamster ovary (CHO) cells; assay: Protein translation assay (puromycin labelling, CHO cells); assay type: cell-based; conditions: media alone = 100%; for activity at 1 µM: Cricetulus griseus, CHO
Method: Chinese hamster ovary (CHO) cells were maintained at 37° C. and 5% CO2 in Dulbecco's Modified Eagle's Media (DMEM) supplemented with 10% fetal bovine serum, 2 mM L-glutamine, 100 U/ml penicillin, and 100 μg/ml streptomycin. After reaching 80% of confluence, cells were detached and seeded on 6 well plates in complete media, allowed to recover overnight and treated for 2 hours with 1 μM of the test compound (to assess protein synthesis levels in unstressed condition), or for 1 hour with 100 nM or 1 μM of the test compound and then co-treated with 300 nM Tg and 100 nM or 1 μM of the test compound (to assess the recovery of protein synthesis in a stressed condition). Cells treated with Tg alone were used as controls.
After the 2 hours treatments, media were replaced by adding 10 μg/ml puromycin (Sigma Aldrich #P8833) in complete media for 30 min. Media were removed and cells were lysed with SDS-PAGE lysis buffer. Lysates were transferred to 1.5 ml tubes and sonicated for 3 min and total protein amount were quantified using BCA Protein Assay Kit (Pierce). Equal amount of protein (30 μg) was loaded on SDS-PAGE gels. Proteins were transferred onto 0.2 μm PVDF membranes (BioRad) and probed with primary antibodies diluted in Tris-buffered saline supplemented with 0.1% Tween 20 (Merck #S6996184 505) and 3% bovine serum albumin (Rockland #BSA-50).
Puromycin (12D10) (Merck #MABE343) and β-actin (Sigma Aldrich #A5441) antibodies were used as primary antibody. A HRP-conjugated secondary antibody (Rockland) was employed to detect immune-reactive bands using enhanced chemiluminescence (ECL Western Blotting Substrate, Pierce). Quantification of protein bands was done by densitometry using ImageJ software.
Percent increase of protein synthesis in unstressed cells (without Tg treatment) in the presence of media alone or certain test compounds is shown in Table 3 The percentage levels were normalized to the media alone condition, which correspond to 100% protein synthesis.
Percent recovery of protein synthesis in stressed cells (with Tg treatment) due to the test compounds at 100 nM or 1 μM is also shown in Table 3. The levels were normalized to the media alone and to Tg alone conditions, which correspond to 100% and 0% respectively.

[2] = 2 h, unstressed CHO cells, 1 μM, 2 hours, read-out: % Protein synthesis in unstressed cells (1 μM test compound)
[3] = CHO cells stressed with 300 nM Tg, 1 μM compound, Tg alone = 0%, read-out: % Recovery of protein expression (1 μM test compound)
[4] = 100 nM thapsigargin, 3 hours, HEK293T ATF4 luciferase reporter
[5] = Homo sapiens, HEK-293T, 3 h, 100 nM test compound, 100 nM thapsigargin, 3 hours, HEK293T ATF4 luciferase reporter
[6] = Homo sapiens, HEK-293T, 3 h, 1 μM test compound, 100 nM thapsigargin, 3 hours, HEK293T ATF4 luciferase reporter
[7] = unstressed CHO cells, 1 μM, 2 hours
[8] = 100 nM test compound, 100 nM thapsigargin, 3 hours, HEK293T ATF4 luciferase reporter
[9] = 1 μM test compound, 100 nM thapsigargin, 3 hours, HEK293T ATF4 luciferase reporter
[10] = Homo sapiens, HEK-293T, 3 h, 100 nM thapsigargin, 3 hours, HEK293T ATF4 luciferase reporter

Row | SMILES | inhibition at 0.1 µM (ATF4; Homo sapiens, HEK-293T, 3 h) [%] | inhibition at 1 µM (ATF4; Homo sapiens, HEK-293T, 3 h) [%] | IC50 (ATF4; Homo sapiens, HEK-293T, 3 h) [nM] | activity at 1 µM [1, 2] [%] | activity at 1 µM [1, 3] [%] | IC50 (ATF4; [4]) [nM] | inhibition at 0.1 µM (ATF4; [5]) [%] | inhibition at 1 µM (ATF4; [6]) [%] | % Protein synthesis in unstressed cells (1 μM test compound) [1, 7] [%] | % ATF4 inhibition at 100 nM (ATF4; [8]) [%] | % ATF4 inhibition at 1 μM (ATF4; [9]) [%] | % Recovery of protein expression (1 μM test compound) ([1]; CHO cells stressed with 300 nM Tg, 1 μM compound, Tg alone = 0%) [%] | IC50 (ATF4; [10]) [nM]
1 | O=C(COc1ccc(Cl)c(F)c1)NN1CCN(C(=O)COc2ccc(Cl)c(F)c2)CC1 [Compound 30, 2-(4-chloro-3-fluorophenoxy)-N-(4-(2-(4-chloro-3-fluorophenoxy)acetyl)piperazin-1-yl)acetamide] | 29.5 | 97.1 | 187 | 49.3 | 31.7 |  |  |  |  |  |  |  | 
2 | O=C(COc1ccc(Cl)c(F)c1)NC1CCN(NC(=O)C2CNc3cc(Cl)ccc3O2)CC1 (stereo not shown) [Compound 31, 6-chloro-N-(4-(2-(4-chloro-3-fluorophenoxy)acetamido)piperidin-1-yl)-3,4-dihydro-2H-benzo[b][1,4]oxazine-2-carboxamide] |  |  |  |  |  | 4.16 | 94.8 | 92.7 | 155.4 |  |  |  | 
3 | O=C(COc1ccc(Cl)c(F)c1)NN1CCC(NC(=O)C2CNc3cc(Cl)ccc3O2)CC1 (stereo not shown) [Compound 32] |  |  |  |  |  | 12 |  |  | 115.7 | 85.7 | 92.4 | 74.8 | 
4 | O=C(NN1CCN(CCCOc2ccc(Cl)c(F)c2)CC1)C1CNc2cc(Cl)ccc2O1 (stereo not shown) [Compound 44, 6-chloro-N-(4-(3-(4-chloro-3-fluorophenoxy)propyl)piperazin-1-yl)-3,4-dihydro-2H-benzo[b][1,4]oxazine-2-carboxamide] | 51.5 | 82 | 151 | 146 | 120 |  |  |  |  |  |  |  | 
5 | O=C(COc1ccc(Cl)cc1)NC1CCN(NC(=O)COc2ccc(Cl)cc2)CC1 [Compound 45, N,N′-(piperidine-1,4-diyl)bis(2-(4-chlorophenoxy)acetamide)] | 92.7 | 92.4 | 2.6 | 114 | 82.3 |  |  |  |  |  |  |  | 
6 | O=C(COc1ccc(Cl)c(F)c1)NC1CCN(NC(=O)[C@H]2CNc3cc(Cl)ccc3O2)CC1 [Compound 46, (R)-6-chloro-N-(4-(2-(4-chloro-3-fluorophenoxy)acetamido)piperidin-1-yl)-3,4-dihydro-2H-benzo[b][1,4]oxazine-2-carboxamide] |  |  |  | 114 | 63.3 |  | 100 | 99.3 |  |  |  |  | 3.6
7 | O=C(COc1ccc(Cl)c(F)c1)NC1CCN(NC(=O)[C@@H]2CNc3cc(Cl)ccc3O2)CC1 [Compound 47, (S)-6-chloro-N-(4-(2-(4-chloro-3-fluorophenoxy)acetamido)piperidin-1-yl)-3,4-dihydro-2H-benzo[b][1,4]oxazine-2-carboxamide] |  |  |  |  |  | 1.98 |  |  | 89.4 | 98.2 | 99.0 |  | 
8 | O=C(NN1CCN(C[C@@H](O)COc2ccc(Cl)c(F)c2)CC1)c1cc2cc(Cl)ccc2o1 [Compound 48, (R)-5-chloro-N-(4-(3-(4-chloro-3-fluorophenoxy)-2-hydroxypropyl)piperazin-1-yl)benzofuran-2-carboxamide] |  |  |  | 85.3 | 76.2 |  | 96.5 | 97.4 |  |  |  |  | 3.36
9 | O=C(NN1CCN(C[C@H](O)COc2ccc(Cl)c(F)c2)CC1)c1cc2cc(Cl)ccc2o1 [Compound 49, (S)-5-chloro-N-(4-(3-(4-chloro-3-fluorophenoxy)-2-hydroxypropyl)piperazin-1-yl)benzofuran-2-carboxamide] |  |  |  | 82.3 | 70.7 |  | 55.4 | 100 |  |  |  |  | 69.7
10 | O=C(COc1ccc(Cl)c(F)c1)NN1CCC(NC[C@H](O)COc2ccc(Cl)c(F)c2)CC1 [Compound 53, (S)-2-(4-chloro-3-fluorophenoxy)-N-(4-((3-(4-chloro-3-fluorophenoxy)-2-hydroxypropyl)amino)piperidin-1-yl)acetamide] |  |  |  | 83.7 | 46.2 |  | 36.1 | 69.8 |  |  |  |  | 268
11 | O=C(NN1CCC(NC[C@@H](O)COc2ccc(Cl)c(F)c2)CC1)c1cc2cc(Cl)ccc2o1 [Compound 54] | 87.2 | 97.2 | 1.6 | 99.7 | 69.9 |  |  |  |  |  |  |  | 
12 | O=C(NN1CCC(NC[C@H](O)COc2ccc(Cl)c(F)c2)CC1)c1cc2cc(Cl)ccc2o1 [Compound 55, (S)-5-chloro-N-(4-((3-(4-chloro-3-fluorophenoxy)-2-hydroxypropyl)amino)piperidin-1-yl)benzofuran-2-carboxamide] | 58.1 | 80.5 | 102 | 110 | 49.6 |  |  |  |  |  |  |  | 
13 | O=C(NN1CCC(NC[C@@H](O)COc2ccc(Cl)c(F)c2)CC1)c1ccc2cc(Cl)ccc2n1 [Compound 56, (R)-6-chloro-N-(4-((3-(4-chloro-3-fluorophenoxy)-2-hydroxypropyl)amino)piperidin-1-yl)quinoline-2-carboxamide] |  |  |  | 155 | 46.1 |  | 63.4 | 75.6 |  |  |  |  | 71.7
14 | O=C(NN1CCC(NC[C@H](O)COc2ccc(Cl)c(F)c2)CC1)c1ccc2cc(Cl)ccc2n1 [Compound 57, (S)-6-chloro-N-(4-((3-(4-chloro-3-fluorophenoxy)-2-hydroxypropyl)amino)piperidin-1-yl)quinoline-2-carboxamide] |  |  |  | 139 | 69.6 |  | 25.9 | 39.8 |  |  |  |  | > 10000
15 | O=C(NN1CCN(C[C@H](O)COc2ccc(Cl)c(F)c2)CC1)c1ccc2cc(Cl)ccc2n1 [Compound 59, (S)-6-chloro-N-(4-(3-(4-chloro-3-fluorophenoxy)-2-hydroxypropyl)piperazin-1-yl)quinoline-2-carboxamide] |  |  |  | 180 | 98.7 |  | 38.8 | 66 |  |  |  |  | 570
